The text below walks through data of article PMC8619001, “Discovery of New Ginsenol-Like Compounds with High Antiviral Activity” (Molecules, 2021).

One data set concerns HSV-1. On the set-up: method as in PMID 20008902. Conditions: HSV-1, Figure 1; cited from earlier work.
The subject of data set [1] is HA of influenza viruses A of H3, H5, and H7 subtypes and influenza virus B. It counts as biochemical. Conditions: pH 5.
A further data set has as its target HA of A/Puerto Rico/8/34 (Influenza A virus, UniProt P03452). It counts as biochemical, influenza virus A/Puerto Rico/8/34 (H1N1). Conditions: pH 5.
The subject of data set [2] is influenza virus A/Puerto Rico/8/1934 (H1N1). The data set can be described thus: organism not typed. It counts as cell-based, influenza virus A/Puerto Rico/8/34 (H1N1). As to conditions: MDCK, 24 h, read-out: IC50 (virus yield reduction).
The test system of the next data set is A/Aichi/2/1968 (H3N2). The data set can be described thus: microbe, parasite or virus in culture. It counts as cell-based, influenza virus A/Aichi/2/68 (H3N2). As to conditions: Influenza A virus, H1N1 / H3N2, MDCK, 72 h, read-out: IC50 H1N1.
For data set [3], the system named is influenza virus A/Puerto Rico/8/34 (H1N1). The experiment in a line: organism not typed. The format is cell-based. As to conditions: for IC50: MDCK, 72 h, read-out: IC50 H1N1.
Data set [4] relates to HA of A/Vladivostok/2/2009 (H1N1). The format is biochemical, influenza virus A/Vladivostok/2/2009 (H1N1). As to conditions: pH 5.
Data set [5] addresses viral hemagglutinin (HA) of influenza virus A/Puerto Rico/8/34 (H1N1) (Influenza A virus, UniProt P03452). It counts as biochemical.
The subject of data set [6] is A/California/7/2009 (H1N1) pdm09. The data set can be described thus: microbe, parasite or virus in culture. Conditions: Influenza A virus, H1N1, MDCK, 72 h, read-out: IC50 H1N1. The format is cell-based, influenza virus A/California/07/09 (H1N1)pdm09.
Data set [7] deals with A/Mallard/Pennsylvania/1984 (H5N2). The experiment in a line: microbe, parasite or virus in culture. The format is cell-based, influenza virus A/mallard/Pennsylvania/10218/84 (H5N2). As to conditions: Influenza A virus, H1N1 / H5N2, MDCK, in Anas platyrhynchos, 72 h, read-out: IC50 H1N1.
The nature of a further data set: in vitro. Conditions: dog.
The subject of another data set is A/Anhui/1/2013 (H7N9). The data set can be described thus: microbe, parasite or virus in culture. The format is cell-based, influenza virus A/Anhui/1/2013 (H7N9). As to conditions: Influenza A virus, H1N1 / H7N9, MDCK, 72 h, read-out: IC50 H1N1.
The subject of data set [8] is HA of A/California/7/2009 (H1N1). The format is biochemical, influenza virus A/California/07/09 (H1N1)pdm09. As to conditions: pH 5.
Data set [9] is described as follows: In vivo toxicity study (LD50).
The test system of data set [10] is B/Florida/4/2006 (Yamagata-like). The experiment in a line: microbe, parasite or virus in culture. It counts as cell-based, influenza virus B/Florida/4/2006 (Yamagata-like). As to conditions: Influenza B virus, MDCK, 72 h, read-out: IC50 H1N1.
For data set [11], the system named is influenza virus A/Puerto Rico/8/34 (H1N1). It counts as cell-based.
In data set [12] the test system is influenza virus A/Leningrad/134/17/1957 (H2N2). As to conditions: cited from earlier work.

Each structure is given as a SMILES string. Where only a bound is given, the exact number is not on record here.

Chain of HA of A/Puerto Rico/8/34 (P03452 18-343 limits assumed): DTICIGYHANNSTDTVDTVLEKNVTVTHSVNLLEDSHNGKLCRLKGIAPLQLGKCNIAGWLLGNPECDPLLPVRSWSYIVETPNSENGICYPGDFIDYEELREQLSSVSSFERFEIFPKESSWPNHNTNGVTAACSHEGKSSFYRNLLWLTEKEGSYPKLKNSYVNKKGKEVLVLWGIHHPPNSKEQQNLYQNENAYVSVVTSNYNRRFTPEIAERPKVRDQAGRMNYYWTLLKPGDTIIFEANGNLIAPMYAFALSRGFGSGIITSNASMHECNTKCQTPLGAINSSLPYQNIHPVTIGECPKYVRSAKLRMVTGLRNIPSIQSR
Chain of HA of A/Puerto Rico/8/34 (P03452 344-565 limits assumed): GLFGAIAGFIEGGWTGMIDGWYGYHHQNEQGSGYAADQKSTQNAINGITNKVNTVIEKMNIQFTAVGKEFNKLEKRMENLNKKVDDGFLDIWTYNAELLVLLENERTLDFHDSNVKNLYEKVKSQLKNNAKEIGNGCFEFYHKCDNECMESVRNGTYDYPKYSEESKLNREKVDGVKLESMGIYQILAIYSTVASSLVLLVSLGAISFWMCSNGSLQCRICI
Chain of viral hemagglutinin (HA) of influenza virus A/Puerto Rico/8/34 (H1N1) (P03452 18-343 limits assumed): as the sequence (P03452 18-343 limits assumed) above
Chain of viral hemagglutinin (HA) of influenza virus A/Puerto Rico/8/34 (H1N1) (P03452 344-565 limits assumed): as the sequence (P03452 344-565 limits assumed) above

Regarding `C=C1CC/C=C(\C)CC[C@@H]2[C@@H]1CC2(C)C` [Caryophyllene], the SI in the data set on HSV-1 was 140.

A word on the IC50: it is the midpoint of a concentration-inhibition curve. Usually LD50 stands for the dose at which mortality reaches 50%. The low end stands for a more toxic substance, the high end for a less toxic substance. Regarding `CC(=O)NC12CC(C)(C)C3CCC1(C)CCCC32C` [Compound 1a, (1S,3aR,4R,7aS)-N-(2,2,4,7a-tetramethyloctahydro-1,4-etanoinden-3a-yl)-acetamide], the “Inhibition of fusogenic activity of viral HA” value was “did not decrease their fusogenic activity, or this effect was observed only at the highest concentrations” in data set [1]; “highest activity” on HA of A/Puerto Rico/8/34; “highest activity” in data set [4]; “less sensitive” in [8]. Further, the IC50 in [2] is 0.15 µM; in the data set with A/Aichi/2/1968 (H3N2) it was 789 ± 82 µM; in data set [3], 0.152 ± 0.03 µM; in data set [6], 10.7 ± 1.3 µM; in data set [7], 133 ± 15.6 µM; with A/Anhui/1/2013 (H7N9) it was 126 ± 11.8 µM. The IC50 in [10] turned out to be 1130 ± 141 µM. In [5], the “Effect on the hemagglutinating titre of the virus” value is on record as “did not change the hemagglutinating titre of the virus”. In the data set “in vitro”, this molecule showed a CC50 above 1140 µM. Further, the LD50 in [9] is above 5000 mg/kg. Besides, in [11], the “Period of presence in the culture medium giving the most pronounced effect” value is on record as 0 to 2 h post-infection (hpi).

As a reminder, the melting point is the temperature of the solid-liquid transition. `CCC(=O)NC12CC(C)(C)C3CCC1(C)CCCC32C` (stereo not drawn) [Compound 1b, N-(2,2,4,7a-tetramethyloctahydro-3aH-1,4-ethanoinden-3a-yl)propionamide] gave a melting point of 103 °C. In addition, in [3], the SI is on record as 890 and the IC50 is 0.144 ± 0.019 µM. Moreover, the CC50 in “in vitro” came to 128 ± 9.4 µM.

In turn, `CC(C)C(=O)NC12CC(C)(C)C3CCC1(C)CCCC32C` (stereo not drawn) [Compound 1c, N-(2,2,4,7a-tetramethyloctahydro-3aH-1,4-ethanoinden-3a-yl)isobutyramide] showed a melting point of 103 °C. Further, in data set [3], the SI is given as 5000 and the IC50 came out at 0.21 ± 0.029 µM. Also, the CC50 in the data set “in vitro” was above 1030 µM.

On to `CC1(C)CC2(NC(=O)c3ccccc3)C3(C)CCCC2(C)C1CC3` (stereo not drawn) [Compound 1d, N-(2,2,4,7a-tetramethyloctahydro-3aH-1,4-ethanoinden-3a-yl)benzamide], for which, in data set [3], the SI turned out to be 15 and the IC50 is 9.2 ± 1.1 µM. The CC50 in the data set “in vitro” is 141 ± 11.5 µM.

`CC1(C)CC2(N)C3(C)CCCC2(C)C1CC3.Cl` (stereo not drawn) [Compound 2, 2,2,4,7a-tetramethyloctahydro-3aH-1,4-ethanoinden-3a-amine hydrochloride] displayed a melting point of 257.8 to 261.3 °C. Further, in [3], the SI is 34 and the IC50 turned out to be 0.45 ± 0.06 µM. Also, the CC50 in the data set “in vitro” worked out at 15.4 ± 1.2 µM.

`CC(=S)NC12CC(C)(C)C3CCC1(C)CCCC32C` (stereo not drawn) [Compound 3, N-(2,2,4,7a-tetramethyloctahydro-3aH-1,4-ethanoinden-3a-yl)ethanethioamide]: in data set [3], the SI turned out to be 1000 and the IC50 turned out to be 1.13 ± 0.19 µM. In “in vitro”, this molecule yielded a CC50 above 1130 µM.

`CC(C)=CCC/C(C)=C/CC/C(C)=C/CO` [Farnesol]: the SI in the data set with HSV-1 is 11.

Regarding `CCOC(=O)C1=C[C@@H](OC(CC)CC)[C@H](NC(C)=O)[C@@H](N)C1` [Oseltamivir, reference compound], the IC50 in [3] is 0.31 ± 0.04 µM. In the data set “in vitro”, this molecule yielded a CC50 above 200 µM.

For the molecule `C[C@H]1CC[C@@]2(O)C(C)(C)[C@@H]3CC[C@@]2(C)[C@H]1C3` [Patchouli alcohol], in data set [12], the SI is given as 4.9.

Consider `NC(=O)c1ncn([C@@H]2O[C@H](CO)[C@@H](O)[C@H]2O)n1` [Ribavirin, reference compound], for which, in data set [3], the SI is above 81 and the IC50 was found to be 24.6 ± 3.7 µM. For the same molecule, the CC50 at 72 h in “in vitro” is above 2000 µM.

As to `CC(N)C12CC3CC(CC(C3)C1)C2` (stereo not drawn) [Rimantadine, reference compound], in [3], the SI is listed as 5 and the IC50 worked out at 67 ± 4.9 µM. This molecule returned a CC50 in the data set “in vitro” of 335 ± 27 µM.

Regarding `C=C1CCC2OC2(C)CCC2C1CC2(C)C` (stereo not drawn) [beta-Caryophyllene oxide], the SI in the data set on HSV-1 was 25.
